Results taken from US20260306502A1, “MITOCHONDRIAL UNCOUPLERS FOR TREATMENT OF METABOLIC DISEASES AND CANCER” (Mito Biopharma, LLC, priority 2022, published 2026).

Test system: C2C12 cells
Assay: Mitochondrial uncoupling activity by oxygen consumption rate (OCR) assay, Seahorse, in presence of oligomycin
Format: cell-based, mouse
Conditions: Mus musculus, C2C12; in the presence of oligomycin 2.5 μM; read-out: COCR-min: minimal concentration increasing OCR in the presence of oligomycin
Description: By definition, mitochondrial uncoupling is the decoupling of mitochondrial electron transport chain activity (mitochondrial oxidation) from ATP synthesis by mitochondrial ATP synthase. Technically, mitochondrial uncoupling activity is defined by the ability of a chemical compound to induce oxygen consumption of cells or isolated mitochondria in the presence of a mitochondrial ATP synthase inhibitor such as oligomycin. Accordingly, mitochondrial uncoupling activity was determined by oxygen consumption rate assay with a Seahorse XF96 or a Seahorse XF24 instrument following the vendor's instruction, using mouse myoblast C2C12 cells grown in a medium containing 10% fetal bovine serum. OCR was measured stepwise under the following conditions: first under normal growth conditions; then. OCR was measured after oligomycin was added to reach a final concentration of 2.5 μM); then OCR was measured after the compound was further added at varying concentrations. Finally, rotenone and antimycin A were added to confirm that the measurement was mitochondrial oxygen consumption (rotenone and […] mitochondrial electron transport chain inhibitors).
COCR-min the minimal concentration required for each compound to induce OCR in the presence of oligomycin, of disclosed compounds, was also determined by varying the final concentration of the compound added to the Seahorse OCR analysis experiment as described above (FIG. 2, varying testing compound concentration). Table 8 summarizes the mitochondrial uncoupling activity of disclosed compounds, as represented by COCR-min.

`C[C@@H]1CN(Cc2cc(Cl)cc(C(=O)Nc3nc4c(COCCNS(C)(=O)=O)cc(C(F)(F)F)cc4s3)c2O)C[C@H](C)O1` [Compound 92, 5-chloro-3-((cis-2,6-dimethylmorpholino)methyl)-2-hydroxy-N-(4-((2-(methylsulfonamido)ethoxy)methyl)-6-(trifluoromethyl)benzo[d]thiazol-2-yl)benzamide] and `C[C@@H]1CN(Cc2cc(Cl)cc(C(=O)Nc3nc4c(COCCN5CCN(C)CC5)cc(C(F)(F)F)cc4s3)c2O)C[C@H](C)O1` [Compound 76, 5-chloro-3-((cis-2,6-dimethylmorpholino)methyl)-2-hydroxy-N-(4-((2-(4-methylpiperazin-1-yl)ethoxy)methyl)-6-(trifluoromethyl)benzo[d]thiazol-2-yl)benzamide] cannot be ordered by minimal effective concentration: less than 5 µM for the first, less than 5 µM for the second.

Compared with `O=C(Nc1nc2ccc(C(F)(F)F)cc2s1)c1cc(Cl)cc(CN2CCC(O)C2)c1O` (centres unmarked) [Compound 30, 5-chloro-2-hydroxy-3-((3-hydroxypyrrolidin-1-yl)methyl)-N-(6-(trifluoromethyl)benzo[d]thiazol-2-yl)benzamide], `O=C(Nc1nc2ccc(C(F)(F)F)cc2s1)c1cc(Cl)cc(CN2CCC(F)CC2)c1O` [Example 60, 5-chloro-3-((4-fluoropiperidin-1-yl)methyl)-2-hydroxy-N-(6-(trifluoromethyl)benzo[d]thiazol-2-yl)benzamide] is lower in minimal effective concentration: greater than 10 µM for the first, less than 5 µM for the second.

`O=C(Nc1nc2ccc(C(F)(F)F)cc2s1)c1cc(Cl)cc(CN2CCC(F)(F)CC2)c1O` [Example 62, 5-chloro-3-((4,4-difluoropiperidin-1-yl)methyl)-2-hydroxy-N-(6-(trifluoromethyl)benzo[d]thiazol-2-yl)benzamide] and `O=C(Nc1nc2ccc(C(F)(F)F)cc2s1)c1cc(Cl)cc(CN2CCCC(F)(F)C2)c1O` [Example 59, 5-chloro-3-((3,3-difluoropiperidin-1-yl)methyl)-2-hydroxy-N-(6-(trifluoromethyl)benzo[d]thiazol-2-yl)benzamide] cannot be ordered by minimal effective concentration: less than 5 µM for the first, less than 5 µM for the second.

First: COCCOCc1cc(Cl)cc(C(=O)Nc2ccc(C(F)(F)F)nc2Cl)c1O [Compound 47, 5-chloro-N-(2-chloro-6-(trifluoromethyl)pyridin-3-yl)-2-hydroxy-3-((2-methoxyethoxy)methyl)benzamide]
Second: COCCOCc1cc(Cl)cc(C(=O)Nc2ccc(C(F)(F)F)nc2)c1O [Compound 20, 5-chloro-2-hydroxy-3-((2-methoxyethoxy)methyl)-N-(6-(trifluoromethyl)pyridin-3-yl)benzamide]
The minimal effective concentration of the first is lower: less than 5 µM for the first, 5 to 10 µM for the second.

First: COCOCc1cc(Cl)cc(C(=O)Nc2nc3ccc(C(F)(F)F)cc3s2)c1O [Compound 1, 5-chloro-2-hydroxy-3-((methoxymethoxy)methyl)-N-(6-(trifluoromethyl)benzo[d]thiazol-2-yl)benzamide]
Second: COCCOCc1cc(Cl)cc(C(=O)Nc2nc3ccc(OC(F)(F)F)cc3s2)c1O [Compound 5, 5-chloro-2-hydroxy-3-((2-methoxyethoxy)methyl)-N-(6-(trifluoromethoxy)benzo[d]thiazol-2-yl)benzamide]
The minimal effective concentration of the first is lower: less than 5 µM for the first, 5 to 10 µM for the second.

`COc1cc(C(F)(F)F)cc2sc(NC(=O)c3cc(Cl)cc(C)c3O)nc12` [Compound 67, 5-chloro-2-hydroxy-N-(4-methoxy-6-(trifluoromethyl)benzo[d]thiazol-2-yl)-3-methylbenzamide] and `Cc1cc(Cl)cc(C(=O)Nc2nc3c(CN(C)C)cc(C(F)(F)F)cc3s2)c1O` [Example 96, 5-chloro-N-(4-((dimethylamino)methyl)-6-(trifluoromethyl)benzo[d]thiazol-2-yl)-2-hydroxy-3-methylbenzamide] cannot be ordered by minimal effective concentration: less than 5 µM for the first, less than 5 µM for the second.

Going from `O=C(Nc1ccc(C(F)(F)F)nc1)c1cc(Cl)cc(C2CCOC2)c1O` (centres unmarked) [Example 98, 5-chloro-2-hydroxy-3-(tetrahydrofuran-3-yl)-N-(6-(trifluoromethyl)pyridin-3-yl)benzamide] to `O=C(Nc1ccc(C(F)(F)F)nc1)c1cc(Cl)cc(CN2CCOCC2)c1O` [Compound 53, 5-chloro-2-hydroxy-3-(morpholinomethyl)-N-(6-(trifluoromethyl)pyridin-3-yl)benzamide], the minimal effective concentration falls from greater than 10 µM to less than 5 µM.

`COCCN(CCOC)Cc1cc(Cl)cc(C(=O)Nc2nc3c(COCCNS(C)(=O)=O)cc(C(F)(F)F)cc3s2)c1O` [Compound 93, 3-((bis(2-methoxyethyl)amino)methyl)-5-chloro-2-hydroxy-N-(4-((2-(methylsulfonamido)ethoxy)methyl)-6-(trifluoromethyl)benzo[d]thiazol-2-yl)benzamide] and `COCCOCc1cc(C(F)(F)F)cc2sc(NC(=O)c3cc(Cl)cc(CN(CCOC)CCOC)c3O)nc12` [Compound 70, 3-((bis(2-methoxyethyl)amino)methyl)-5-chloro-2-hydroxy-N-(4-((2-methoxyethoxy)methyl)-6-(trifluoromethyl)benzo[d]thiazol-2-yl)benzamide] cannot be ordered by minimal effective concentration: less than 5 µM for the first, less than 5 µM for the second.

`Cc1cc(Cl)cc(C(=O)Nc2nc3c(CN4CCOCC4)cc(C(F)(F)F)cc3s2)c1O` [Example 95, 5-chloro-2-hydroxy-3-methyl-N-(4-(morpholinomethyl)-6-(trifluoro-methyl)benzo[d]thiazol-2-yl)benzamide] and `Cc1cc(Cl)cc(C(=O)Nc2nc3c(COCCN4CCN(C)CC4)cc(C(F)(F)F)cc3s2)c1O` [Compound 75, 5-chloro-2-hydroxy-3-methyl-N-(4-((2-(4-methylpiperazin-1-yl)ethoxy)methyl)-6-(trifluoromethyl)benzo[d]thiazol-2-yl)benzamide] cannot be ordered by minimal effective concentration: less than 5 µM for the first, less than 5 µM for the second.

First: COCCOCCN(C)Cc1cc(Cl)cc(C(=O)Nc2nc3ccc(C(F)(F)F)cc3s2)c1O [Compound 24, 5-chloro-2-hydroxy-3-(((2-(2-methoxyethoxy)ethyl)(methyl)amino)methyl)-N-(6-(trifluoromethyl)benzo[d]thiazol-2-yl)benzamide]
Second: CC(=O)N1CCN(Cc2cc(Cl)cc(C(=O)Nc3nc4ccc(C(F)(F)F)cc4s3)c2O)CC1 [Compound 19, 3-((4-acetylpiperazin-1-yl)methyl)-5-chloro-2-hydroxy-N-(6-(trifluoromethyl)benzo[d]thiazol-2-yl)benzamide]
The minimal effective concentration of the first is lower: less than 5 µM for the first, 5 to 10 µM for the second.

`Cc1cc(Cl)cc(C(=O)Nc2nc3c(COCc4ccc(Cl)cc4)cc(C(F)(F)F)cc3s2)c1O` [Compound 82, 5-chloro-N-(4-(((4-chlorobenzyl)oxy)methyl)-6-(trifluoromethyl)benzo[d]thiazol-2-yl)-2-hydroxy-3-methylbenzamide] and `Cc1cc(Cl)cc(C(=O)Nc2nc3c(COCCNS(C)(=O)=O)cc(C(F)(F)F)cc3s2)c1O` [Compound 91, 5-chloro-2-hydroxy-3-methyl-N-(4-((2-(methylsulfonamido)ethoxy)methyl)-6-(trifluoromethyl)benzo[d]thiazol-2-yl)benzamide] cannot be ordered by minimal effective concentration: less than 5 µM for the first, less than 5 µM for the second.

`O=C(Nc1ncc(C(F)(F)F)s1)c1cc(Cl)cc(CN2CCOCC2)c1O` [Compound 51, 5-chloro-2-hydroxy-3-(morpholinomethyl)-N-(5-(trifluoromethyl)thiazol-2-yl)benzamide] and `Cc1cc(Cl)cc(C(=O)Nc2nc3c(C4CCN(C)CC4)cc(C(F)(F)F)cc3s2)c1O` [Example 94, 5-chloro-2-hydroxy-3-methyl-N-(4-(1-methylpiperidin-4-yl)-6-(trifluoromethyl)benzo[d]thiazol-2-yl)benzamide] cannot be ordered by minimal effective concentration: less than 5 µM for the first, less than 5 µM for the second.

Compared with `CCC(=O)NCc1cc(C(F)(F)F)cc2sc(NC(=O)c3cc(Cl)cc(C)c3O)nc12` [Example 90, 5-chloro-2-hydroxy-3-methyl-N-(4-(propionamidomethyl)-6-(trifluoromethyl)benzo[d]thiazol-2-yl)benzamide], `CN(C)CCc1cc(Cl)cc(C(=O)Nc2ccc(C(F)(F)F)cc2Cl)c1O` [Compound 18, 5-chloro-N-(2-chloro-4-(trifluoromethyl)phenyl)-3-(2-(dimethylamino)ethyl)-2-hydroxybenzamide] is lower in minimal effective concentration: 5 to 10 µM for the first, less than 5 µM for the second.

Compared with `COCCOCc1cc(Cl)cc(C(=O)Nc2cnc(C(F)(F)F)nc2)c1O` [Compound 21, 5-chloro-2-hydroxy-3-((2-methoxyethoxy)methyl)-N-(2-(trifluoromethyl)pyrimidin-5-yl)benzamide], `COCCOCc1cc(Cl)cc(C(=O)Nc2ccc(C(F)(F)F)cn2)c1O` [Compound 45, 5-chloro-2-hydroxy-3-((2-methoxyethoxy)methyl)-N-(5-(trifluoromethyl)pyridin-2-yl)benzamide] is lower in minimal effective concentration: greater than 10 µM for the first, 5 to 10 µM for the second.

Same assay, conditions: Mus musculus, C2C12; minimal concentration leading to OCR increase; read-out: Activity (Cmin-OCR)

Going from `O=C(Nc1nc2ccc(C(F)(F)F)cc2s1)c1cc(Cl)cc(CO)c1O` [Compound 49 in U.S. Pat. No. 10,227,315, reference compound] to `COCOCc1cc(Cl)cc(C(=O)Nc2nc3ccc(C(F)(F)F)cc3s2)c1O` [drawing 255], the minimal effective concentration falls from 25 µM to 2.5 µM (10-fold).

Compound `COCCOCc1cc(Cl)cc(C(=O)Nc2nc3ccc(C(F)(F)F)cc3s2)c1O` [drawing 256] has a minimal effective concentration of 2.5 µM.

Same assay, conditions: in words, compared to similar compounds of the present invention

With `O=C(Nc1nc2ccc(C(F)(F)F)cc2s1)c1cc(Cl)cc(CO)c1O` [Compound 49 in U.S. Pat. No. 10,227,315, reference compound] the mitochondrial uncoupling activity was “low”.
